The source of these data is patent publication US4694069A, “Kibdelosporangium aridum SK&F-AAD-609” (SmithKline Beckman Corporation, priority 1985, dated 1987).

The term MIC denotes the smallest concentration in the dilution series that meets the test's criterion for growth inhibition. As a reminder, the Cmax is the peak of the concentration-time curve. By ED50 is commonly meant the dose that gives a 50% effect, or the effect in half of the subjects. Read a low ED50 as greater potency.

In brackets after ≈: the same amount, converted by molar mass. Where two headings read alike, the source gives them in different places. Bridge positions count the residues as written; N and C are the ends. Square brackets hold non-standard residues; d marks the D form. Peptide text beside a SMILES is read from it. * marks the point of attachment. Ileψ(thiazoline)Cys = CC[C@H](C)[C@H](N)C1=N[C@H](C(=O)*)CS1; dOrn = NCCC[C@@H](N)C(=O)O

In data set [1] the test system is S. aureus 910 (methicillin resistant strain). The experiment in a line: In vitro MIC, standard microtiter assay. It counts as cell-based, Staphylococcus aureus. The following applies: Staphylococcus aureus. From the text:
(§1) In vitro minimum inhibitory concentrations (MIC) of the AAD-609 complex and of Factors A, B, CC2 and D, using standard microtiter assay procedures, against a number of microorganisms are reported in Table A, which follows.

A further data set relates to S. aureus 675. The experiment in a line: In vitro MIC, standard microtiter assay. It counts as cell-based, Staphylococcus aureus. The following applies: Staphylococcus aureus, 675.
Description: as §1

A further data set relates to S. aureus 209P. Put plainly: In vitro MIC, standard microtiter assay. It counts as cell-based, Staphylococcus aureus. The following applies: Staphylococcus aureus, 209P.
Description: as §1

For the next data set, the system named is S. aureus 674. The experiment in a line: In vitro MIC, standard microtiter assay. The following applies: Staphylococcus aureus, 674. It counts as cell-based, Staphylococcus aureus.
Description: as §1

The conditions of data set [2]: 30:70 acetonitrile:water.
Data set [3] relates to S. faecalis 34358. The experiment in a line: In vitro MIC, standard microtiter assay. It counts as cell-based, Streptococcus faecalis.
Description: as §1

For data set [4] the following is noted: mouse, in vivo.
Data set [5] concerns S. epidermidis 651 (methicillin resistant strain). Put plainly: In vitro MIC, standard microtiter assay. It counts as cell-based.
Description: as §1

The test system of a further data set is S. epidermidis 2265. Put plainly: In vitro MIC, standard microtiter assay. The following applies: Staphylococcus epidermidis, 2265. It counts as cell-based.
Description: as §1

A further data set relates to Escherichia coli 12140. The experiment in a line: In vitro MIC, standard microtiter assay. It counts as cell-based. The following applies: Escherichia coli, 12140.
Description: as §1

Data set [6] has as its system Salmonella gallinarum BC-595. The experiment in a line: In vitro MIC, standard microtiter assay. It counts as cell-based. As to conditions: Salmonella enterica, GALLINARUM
Description: as §1

A further data set concerns Clostridium difficile. The experiment in a line: In vitro MIC, standard microtiter assay. It counts as cell-based. As to conditions: Clostridioides difficile.
Description: as §1

Data set [7] concerns Streptococcus faecalis 657. The experiment in a line: In vitro MIC, standard microtiter assay. As to conditions: Enterococcus faecalis, 657. It counts as cell-based.
Description: as §1

Another data set relates to S. epidermidis 2683. The experiment in a line: In vitro MIC, standard microtiter assay. The following applies: Staphylococcus epidermidis, 2683. It counts as cell-based.
Description: as §1

Data set [8] relates to Staphylococcus aureus HH127. The experiment in a line: In vitro MIC, standard microtiter assay. It counts as cell-based.
Description: as §1

The test system of data set [9] is S. epidermidis 2479. The experiment in a line: In vitro MIC, standard microtiter assay. It counts as cell-based.
Description: as §1

In data set [10] the test system is S. aureus 2620 (methicillin resistant strain). Put plainly: MIC. It counts as cell-based. The following applies: Staphylococcus aureus.
Description: as §1

The subject of another data set is pigs. As to conditions: pig, in vivo; cited from earlier work.
The test system of a further data set is SK&F-AAD-609. The experiment in a line: Susceptibility of SK&F-AAD-609 to antibiotics (diffusion method, BBL susceptibility disks). It counts as cell-based, Kibdelosporangium aridum subsp. largum. As to conditions: disk 30 μg; 28° C., one week. How it is done: Susceptibility of SK&F-AAD-609 to antibiotics was examined by placing BBL susceptibility disks on nutrient agar plates seeded with SK&F-ADD-609 as an agar overlay. Plates were placed at 4° C. for one hour to permit diffusion of the anitbiotics and, subsequently, incubated at 28° C. Diameters of the zones of inhibition were measured after incubation for one week.
Susceptibility to Antibiotics. […] Chlortetracycline (5 μg) produced 17-18 mm zones of inhibition; tetracycline (5 μg) 9-12 mm zones; rifampin (5 μg) 10-12 mm zones; novobiocin (5 μg) 30-35 mm zones. All zones of inhibition contained at least a few resistant colonies.

The conditions of data set [11]: comparators, source not given; cited from earlier work.
Another data set has as its system S. aureus HH127. Put plainly: Mouse protection test. It counts as in vivo. The following applies: Staphylococcus aureus, HH127, sc. The source says:
(§2) in mouse protection tests^1
(§3) ^1 Mice dosed 1 and 5 H post infection s.c.; ED50, mg/kg.

For data set [12], the system named is S. epidermidis 651 (methicillin resistant strain). The experiment in a line: Mouse protection test. It counts as in vivo. As to conditions: Staphylococcus epidermidis, sc.
Description: as §2, §3

Data set [13] concerns S. faecalis 34358. The experiment in a line: Mouse protection test. It counts as in vivo. As to conditions: Enterococcus faecalis, 34358, sc.
Description: as §2, §3

For data set [14], the system named is S. aureus 2620 (methicillin resistant strain). The experiment in a line: Mouse protection test. As to conditions: Staphylococcus aureus, sc. It counts as in vivo.
Description: as §2, §3

In data set [15] the test system is S. epidermidis 2479. Put plainly: Mouse protection test. It counts as in vivo. As to conditions: Staphylococcus epidermidis, 2479, sc.
Description: as §2, §3

Where [16] appears, read: Table B, methicillin resistant strain.

Take `CCCCCCCCCC(=O)NC1C(Oc2c3cc4cc2Oc2c(Cl)cc(cc2Cl)C(O)C2NC(=O)C(NC(=O)C4NC(=O)C4NC(=O)C(NC(=O)C(NC)c5ccc(O)c(c5)Oc5cc(O)c(Cl)c4c5)C(O)c4ccc(c(Cl)c4)O3)c3ccc(O)c(c3)-c3c(OC4OC(CO)C(O)C(O)C4O)cc(O)cc3C(C(=O)O)NC2=O)OC(CO)C(O)C1O` (stereo not shown) [AAD-609 A]: the MIC was determined as 1.6 µg/mL (≈ 0.901 µM) in data set [1] (Table A, methicillin resistant strain, read-out: MIC); 6.3 µg/mL (≈ 3.55 µM) in the data set with S. aureus 675 (Table A, read-out: MIC); 0.4 µg/mL (≈ 0.225 µM) in the data set on S. aureus 209P (Table A, read-out: MIC); 0.8 µg/mL (≈ 0.451 µM) in the data set on S. aureus 674 (Table A, read-out: MIC); 0.4 µg/mL (≈ 0.225 µM) with S. faecalis 34358 [3] (Enterococcus faecalis, 34358, Table A, read-out: MIC); 0.4 µg/mL (≈ 0.225 µM) in the data set on S. faecalis 34358 [3] (Table B). In addition, the MIC in data set [5] (Staphylococcus epidermidis, Table A, methicillin resistant strain, read-out: MIC) is 50 µg/mL (≈ 28.2 µM); in [5] (setting [16]), 50 µg/mL (≈ 28.2 µM); in the data set with S. epidermidis 2265 (Table A, read-out: MIC) it was 25 µg/mL (≈ 14.1 µM); in the data set with Escherichia coli 12140 (Table A, read-out: MIC) it was more than 100 µg/mL; in data set [6] (Table A, read-out: MIC), more than 100 µg/mL; with Clostridium difficile (Table A, read-out: MIC), 0.5 µg/mL (≈ 0.282 µM). Also, the minimal inhibitory concentration (MIC) in [7] (Table A, read-out: MIC) came out at 0.4 µg/mL (≈ 0.225 µM); in the data set with S. epidermidis 2683 (Table A, read-out: MIC), 24 µg/mL (≈ 13.5 µM); in data set [8] (Staphylococcus aureus, HH127, Table A, read-out: MIC) it was 1.6 µg/mL (≈ 0.901 µM); in data set [8] (Table B), 1.6 µg/mL (≈ 0.901 µM); with S. epidermidis 2479 [9] (Staphylococcus epidermidis, 2479, Table A, read-out: MIC), 12.5 µg/mL (≈ 7.04 µM); with S. epidermidis 2479 [9] (Table B), 12.5 µg/mL (≈ 7.04 µM). Further, the MIC in data set [10] (Table B, methicillin resistant strain, read-out: MIC) turned out to be 2 µg/mL (≈ 1.13 µM). Also, the “pKa (A) carboxyl on aglycone” value in data set [2] came out at 3.4. Besides, the “pKa (C) amino group on aglycone” value in [2] was 7.1. The compound also came in with an Elimination half-life in data set [4] of 1.93 h. This compound also gave a Maximum serum concentration in data set [4] of 90 µg/mL.
With `CC[C@H](C)[C@H](N)C1=N[C@H](C(=O)N[C@@H](CC(C)C)C(=O)N[C@H](CCC(=O)O)C(=O)N[C@H](C(=O)N[C@H]2CCCCNC(=O)[C@H](CC(N)=O)NC(=O)[C@@H](CC(=O)O)NC(=O)[C@H](Cc3cnc[nH]3)NC(=O)[C@@H](Cc3ccccc3)NC(=O)[C@H]([C@@H](C)CC)NC(=O)[C@@H](CCCN)NC2=O)[C@@H](C)CC)CS1` [Bacitracin, bacitracin] ({Ileψ(thiazoline)Cys}-L[dE]IK[dOrn]I[dF]H[dD]N; lactam 4-C), the “Growth promotion in pigs (in words)” value in the data set with pigs is “known growth promoter in pigs”.
In the case of `CN[C@H](CC(C)C)C(=O)N[C@H]1C(=O)N[C@@H](CC(N)=O)C(=O)N[C@H]2C(=O)N[C@H]3C(=O)N[C@H](C(=O)N[C@H](C(=O)O)c4cc(O)cc(O)c4-c4cc3ccc4O)[C@H](O)c3ccc(c(Cl)c3)Oc3cc2cc(c3O[C@@H]2O[C@H](CO)[C@@H](O)[C@H](O)[C@H]2O[C@H]2C[C@](C)(N)[C@H](O)[C@H](C)O2)Oc2ccc(cc2Cl)[C@H]1O` [Vancomycin, vancomycin], the MIC in data set [1] turned out to be 1.6 µg/mL (≈ 1.1 µM); in the data set with S. aureus 675 it was 3.1 µg/mL (≈ 2.14 µM); with S. aureus 209P, 0.8 µg/mL (≈ 0.552 µM); against S. aureus 674, 1.6 µg/mL (≈ 1.1 µM); against S. faecalis 34358 [3] (Enterococcus faecalis, 34358), 3.1 µg/mL (≈ 2.14 µM); against S. faecalis 34358 [3] (Table B), 3.1 µg/mL (≈ 2.14 µM). The minimal inhibitory concentration (MIC) in data set [5] (Staphylococcus epidermidis) is 3.1 µg/mL (≈ 2.14 µM); in data set [5] (setting [16]), 3.1 µg/mL (≈ 2.14 µM); against S. epidermidis 2265 it was 1.6 µg/mL (≈ 1.1 µM); with Escherichia coli 12140 it was more than 100 µg/mL; in data set [6], 100 µg/mL (≈ 69 µM); against Clostridium difficile it was 2 µg/mL (≈ 1.38 µM). The MIC in data set [7] worked out at 3.1 µg/mL (≈ 2.14 µM); in the data set with S. epidermidis 2683, 3.1 µg/mL (≈ 2.14 µM); in data set [8] (Staphylococcus aureus, HH127) it was 1.6 µg/mL (≈ 1.1 µM); in data set [8] (Table B) it was 1.6 µg/mL (≈ 1.1 µM); in the data set on S. epidermidis 2479 [9] (Staphylococcus epidermidis, 2479), 3.1 µg/mL (≈ 2.14 µM); against S. epidermidis 2479 [9] (Table B) it was 3.1 µg/mL (≈ 2.14 µM). 2 µg/mL (≈ 1.38 µM) was the least that counted as inhibitory in [10] (MIC). Further, in the data set with SK&F-AAD-609, the “Susceptibility (diffusion method)” value is “resistant”. For the same compound, the Elimination half-life in “Pharmacokinetics in mice” (mice) came to 0.333 h. In “Pharmacokinetics in mice” (mouse, serum), this compound showed a Cmax of 30000 ng/mL. Besides, the Isoelectric point in data set [11] is given as 8.2. The ED50 turned out to be 1.4 mg/kg in the data set on S. aureus HH127; 4.8 mg/kg in data set [12]; 12.5 mg/kg with S. faecalis 34358 [13]; 6.7 mg/kg in data set [14]; 4.1 mg/kg in the data set on S. epidermidis 2479 [15].
